The text below walks through data of US20250154138A1, “Small Molecule IL-17A Modulators” (BeiGene, Ltd., priority 2022, published 2025).

The target of assay [1] is human IL-17A / human IL-17RA (Homo sapiens (Human), UniProt Q16552). The assay can be described thus: Human IL-17A biochemical assay (HTRF, blocking of IL-17A binding to IL-17RA). The settings on record: 0.4 nM IL-17A, 0.3 nM IL-17RA, max compound concentration 10 uM. The essentials: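 Inhibition of IL-17A binding to IL-17RA is measured by HTRF using 0.4 nM IL-17A, 0.3 nM IL-17RA and a 3 h compound pre-incubation at room temperature, pH 7.5. IC50 values come from four-parameter logistic fitting.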
A general note: TR-FRET usually uses a lanthanide donor and a delayed reading to cut background.

The test system of assay [2] is IL-17-induced GROα secretion from HT-29 cells. The assay can be described thus: GROα release assay in human colorectal adenocarcinoma epithelial cell (HT-29, ELISA). The class given is cell-based. The settings on record: Homo sapiens, HT-29, 48 h, 10 ng/mL IL-17A, highest concentration 10 μM, read-out: Cellular assay HT29 cell/CXCL1 IC50. The essentials: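 HT-29 cells were exposed 48 h at 37°C to IL-17A (final 10 ng/mL) preincubated 15 min with compound (4-fold dilutions, top 10 μM). Secreted GROα was quantified by ELISA against a standard curve, and IC50 obtained by four-parameter fitting.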
In general terms: An ELISA detects its analyte on a solid surface through an enzyme-linked reagent.

Chain of human IL-17A / human IL-17RA (Q16552 24-155): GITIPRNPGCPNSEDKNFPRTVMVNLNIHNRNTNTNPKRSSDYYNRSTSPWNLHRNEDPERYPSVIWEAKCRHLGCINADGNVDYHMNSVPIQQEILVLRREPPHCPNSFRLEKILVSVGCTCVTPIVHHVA

As to `CNC(=O)C1(N2CC3(CC3)CNC2=O)Cc2ccc(NC(=O)C(NC(=O)c3nonc3C)C3CCC(C(F)(F)F)CC3)cc2C1` (centres unmarked) [Example 181, 4-methyl-N-(2-((2-(methylcarbamoyl)-2-(6-oxo-5,7-diazaspiro[2.5]octan-5-yl)-2,3-dihydro-1H-inden-5-yl)amino)-2-oxo-1-(4-(trifluoromethyl)cyclohexyl)ethyl)-1,2,5-oxadiazole-3-carboxamide], the results for the IC50 in assay [1] and in assay [2] were 193 nM and 154 nM, respectively.

As for `CNC(=O)C1(N2CC3(CC3)CNC2=O)Cc2ccc(NC(=O)C(NC(=O)c3ccnn3C)C3CCC(C(C)(F)F)CC3)cc2C1` (centres unmarked) [Example 143, N-(1-(4-(1,1-difluoroethyl)cyclohexyl)-2-((2-(methylcarbamoyl)-2-(6-oxo-5,7-diazaspiro[2.5]octan-5-yl)-2,3-dihydro-1H-inden-5-yl)amino)-2-oxoethyl)-1-methyl-1H-pyrazole-5-carboxamide], the IC50 in assay [1] is 163 nM; in assay [2] it was 772 nM.

In the case of `CNC(=O)C1(N2C[C@@H](Cc3ccccn3)NC2=O)Cc2ccc(NC(=O)[C@@H](NC(=O)c3ccnn3C)C3CCCCC3)cc2C1` (stereo partly drawn) [Example 43, N-((1S)-1-cyclohexyl-2-((2-(methylcarbamoyl)-2-((R)-2-oxo-4-(pyridin-2-ylmethyl)imidazolidin-1-yl)-2,3-dihydro-1H-inden-5-yl)amino)-2-oxoethyl)-1-methyl-1H-pyrazole-5-carboxamide], the values for the IC50 in assay [1] and in assay [2] were 1460 nM and 2380 nM, respectively.

Consider `Cn1nccc1C(=O)N[C@H](C(=O)Nc1ccc2c(c1)CC(C(=O)NCc1ccccc1F)(N1CC3(CC3)CNC1=O)C2)C1CCCCC1` (stereo partly drawn) [Example 175, N-((1S)-1-cyclohexyl-2-((2-((2-fluorobenzyl)carbamoyl)-2-(6-oxo-5,7-diazaspiro[2.5]octan-5-yl)-2,3-dihydro-1H-inden-5-yl)amino)-2-oxoethyl)-1-methyl-1H-pyrazole-5-carboxamide], for which the figures for the IC50 in assay [1] and in assay [2] were 22.4 nM and 10.1 nM, respectively.

As for `CNC(=O)C1(N2CC3(CC3)CNC2=O)Cc2ccc(NC(=O)[C@@H](NC(=O)c3cc(C#N)cn3C)C3CCCCC3)cc2C1` (stereo partly drawn) [Example 130, 4-cyano-N-((1S)-1-cyclohexyl-2-((2-(methylcarbamoyl)-2-(6-oxo-5,7-diazaspiro[2.5]octan-5-yl)-2,3-dihydro-1H-inden-5-yl)amino)-2-oxoethyl)-1-methyl-1H-pyrrole-2-carboxamide], the IC50 in assay [1] is 19 nM; in assay [2] it was 59.6 nM.

In the case of `COCC1(N2C[C@@H](C(C)C)NC2=O)Cc2ccc(NC(=O)[C@@H](NC(=O)c3nonc3C)C(C3CC3)C3CC3)cc2C1` (stereo partly drawn) [Example 244, N-((2S)-1,1-dicyclopropyl-3-((2-((R)-4-isopropyl-2-oxoimidazolidin-1-yl)-2-(methoxymethyl)-2,3-dihydro-1H-inden-5-yl)amino)-3-oxopropan-2-yl)-4-methyl-1,2,5-oxadiazole-3-carboxamide], the IC50 in assay [1] was determined as 2130 nM; in assay [2] it was 1570 nM.

Regarding `Cc1nonc1C(=O)N[C@H](C(=O)Nc1ccc2c(c1)CC(C(=O)Nc1ccccc1F)(N1C[C@@H](C(C)C)NC1=O)C2)C1CCC(F)(F)CC1` (stereo partly drawn) [Example 249, N-((1S)-1-(4,4-difluorocyclohexyl)-2-((2-((2-fluorophenyl)carbamoyl)-2-((R)-4-isopropyl-2-oxoimidazolidin-1-yl)-2,3-dihydro-1H-inden-5-yl)amino)-2-oxoethyl)-4-methyl-1,2,5-oxadiazole-3-carboxamide], the IC50 in assay [1] came to 226 nM; in assay [2] it was 695 nM.

As to `CNC(=O)C1(N2C[C@@H](C(C)C)NC2=O)Cc2ccc(NC(=O)[C@@H](NC(=O)c3ccnn3C)C(C3CC3)C3CC3)cc2C1` (stereo partly drawn) [Example 90, N-((2S)-1,1-dicyclopropyl-3-((2-((R)-4-isopropyl-2-oxoimidazolidin-1-yl)-2-(methylcarbamoyl)-2,3-dihydro-1H-inden-5-yl)amino)-3-oxopropan-2-yl)-1-methyl-1H-pyrazole-5-carboxamide], the values for the IC50 in assay [1] and in assay [2] were 37 nM and 48.6 nM, respectively.

`CC(C)[C@@H]1CN(C2(C(=O)NC(CO)C3CCCC3)Cc3ccc(NC(=O)[C@@H](NC(=O)c4ccnn4C)C4CCCCC4)cc3C2)C(=O)N1` (stereo partly drawn) [Example 107, N-((1S)-1-cyclohexyl-2-((2-((1-cyclopentyl-2-hydroxyethyl)carbamoyl)-2-((R)-4-isopropyl-2-oxoimidazolidin-1-yl)-2,3-dihydro-1H-inden-5-yl)amino)-2-oxoethyl)-1-methyl-1H-pyrazole-5-carboxamide]: the IC50 in assay [1] came out at 25 nM; in assay [2], 34.5 nM.

Take `CNC(=O)C1(N2CC3(CCC3)CNC2=O)Cc2ccc(NC(=O)[C@@H](NC(=O)c3ccnn3C)C(C3CC3)C3CC3)cc2C1` (stereo partly drawn) [Example 120, N-((2S)-1,1-dicyclopropyl-3-((2-(methylcarbamoyl)-2-(7-oxo-6,8-diazaspiro[3.5]nonan-6-yl)-2,3-dihydro-1H-inden-5-yl)amino)-3-oxopropan-2-yl)-1-methyl-1H-pyrazole-5-carboxamide]: the IC50 in assay [1] amounted to 19 nM; in assay [2], 72.4 nM.

Consider `Cc1nonc1C(=O)N[C@H](C(=O)Nc1ccc2c(c1)CC(N1C[C@@H](C(F)(F)F)NC1=O)C2)C(C1CC1)C1CC1` (stereo partly drawn) [Example 183, N-((2S)-1,1-dicyclopropyl-3-oxo-3-((2-((S)-2-oxo-4-(trifluoromethyl)imidazolidin-1-yl)-2,3-dihydro-1H-inden-5-yl)amino)propan-2-yl)-4-methyl-1,2,5-oxadiazole-3-carboxamide], for which the values for the IC50 in assay [1] and in assay [2] were 768 nM and 370 nM, respectively.

Take `Cc1nonc1C(=O)N[C@H](C(=O)Nc1ccc2c(c1)CC(c1nc3cccc(C(F)(F)F)c3[nH]1)(N1CC3(CC3)CNC1=O)C2)C1CCC(F)(F)CC1` (stereo partly drawn) [Example 192, N-((1S)-1-(4,4-difluorocyclohexyl)-2-oxo-2-((2-(6-oxo-5,7-diazaspiro[2.5]octan-5-yl)-2-(7-(trifluoromethyl)-1H-benzo[d]imidazol-2-yl)-2,3-dihydro-1H-inden-5-yl)amino)ethyl)-4-methyl-1,2,5-oxadiazole-3-carboxamide]: the IC50 worked out at 1660 nM in assay [1] and 1240 nM in assay [2].

On to `Cc1nonc1C(=O)N[C@H](C(=O)Nc1ccc2c(c1)CC(C(=O)NC1(c3ccccc3F)CC1)(N1CC3(CC3)CNC1=O)C2)C1CCC(F)(F)CC1` (stereo partly drawn) [Example 232, N-((1S)-1-(4,4-difluorocyclohexyl)-2-((2-((1-(2-fluorophenyl)cyclopropyl)carbamoyl)-2-(6-oxo-5,7-diazaspiro[2.5]octan-5-yl)-2,3-dihydro-1H-inden-5-yl)amino)-2-oxoethyl)-4-methyl-1,2,5-oxadiazole-3-carboxamide], for which the IC50 was 117 nM in assay [1] and 158 nM in assay [2].

With `Cc1nonc1C(=O)N[C@H](C(=O)Nc1ccc2c(c1)CC(C(=O)Nc1ccc(Cl)cc1)(N1C[C@@H](C(C)C)NC1=O)C2)C(C1CC1)C1CC1` (stereo partly drawn) [Example 269, N-((2S)-1-((2-((4-chlorophenyl)carbamoyl)-2-((R)-4-isopropyl-2-oxoimidazolidin-1-yl)-2,3-dihydro-1H-inden-5-yl)amino)-3,3-dicyclopropyl-1-oxopropan-2-yl)-4-methyl-1,2,5-oxadiazole-3-carboxamide], the IC50 in assay [1] is 416 nM; in assay [2], 1070 nM.

As to `CNC(=O)C1(N2CC(C(F)(F)F)NC2=O)Cc2ccc(NC(=O)[C@@H](NC(=O)c3ccnn3C)C3CCCCC3)cc2C1` (stereo partly drawn) [Example 202, N-((1S)-1-cyclohexyl-2-((2-(methylcarbamoyl)-2-(2-oxo-4-(trifluoromethyl)imidazolidin-1-yl)-2,3-dihydro-1H-inden-5-yl)amino)-2-oxoethyl)-1-methyl-1H-pyrazole-5-carboxamide], the IC50 in assay [1] was 346 nM; in assay [2], 519 nM.

As for `CC(C)[C@@H]1CC(C2Cc3ccc(NC(=O)[C@@H](NC(=O)c4ccnn4C)C4CCCCC4)cc3C2)C(=O)N1` (stereo partly drawn) [Example 209, N-((1S)-1-cyclohexyl-2-((2-((5S)-5-isopropyl-2-oxopyrrolidin-3-yl)-2,3-dihydro-1H-inden-5-yl)amino)-2-oxoethyl)-1-methyl-1H-pyrazole-5-carboxamide], the IC50 in assay [1] was found to be 1060 nM; in assay [2], 2180 nM.

Regarding `COC(=O)C1(N2CC3(CC3)CNC2=O)Cc2ccc(NC(=O)C(NC(=O)c3ccnn3C)C3CCC(C(C)C)CC3)cc2C1` (centres unmarked) [Example 148, methyl 5-(2-(4-isopropylcyclohexyl)-2-(1-methyl-1H-pyrazole-5-carboxamido)acetamido)-2-(6-oxo-5,7-diazaspiro[2.5]octan-5-yl)-2,3-dihydro-1H-indene-2-carboxylate], the IC50 was found to be 62 nM in assay [1] and 164 nM in assay [2].

`CC[C@H]1CC[C@H]([C@H](NC(=O)c2ccnn2C)C(=O)Nc2ccc3c(c2)CC(C(=O)NC)(N2CC4(CC4)CNC2=O)C3)CC1` (stereo partly drawn) [Example 171, N-((1S)-1-((1r,4S)-4-ethylcyclohexyl)-2-((2-(methylcarbamoyl)-2-(6-oxo-5,7-diazaspiro[2.5]octan-5-yl)-2,3-dihydro-1H-inden-5-yl)amino)-2-oxoethyl)-1-methyl-1H-pyrazole-5-carboxamide]: the IC50 in assay [1] is 7 nM; in assay [2], 9.7 nM.

With `CNC(=O)C1(N2CC3(CC3)CNC2=O)Cc2ccc(NC(=O)C(NC(=O)c3ccnn3C)C3CCC(CC(F)(F)F)CC3)cc2C1` (centres unmarked) [Example 168, 1-methyl-N-(2-((2-(methylcarbamoyl)-2-(6-oxo-5,7-diazaspiro[2.5]octan-5-yl)-2,3-dihydro-1H-inden-5-yl)amino)-2-oxo-1-(4-(2,2,2-trifluoroethyl)cyclohexyl)ethyl)-1H-pyrazole-5-carboxamide], the IC50 in assay [1] stood at 32.8 nM; in assay [2], 60.5 nM.
